Like-named read-outs stand apart in the source and are kept apart here.
Target: CFTR (Homo sapiens, UniProt P13569)
Assay: Membrane Potential Dye, Enteroid Assay B
Format: cell-based
Summary of the method: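 Human intestinal enteroid cells exposed to compound 18-24 h at 37 °C, then loaded with methyl oxonol membrane-potential dye plus CaCC blockers. Chloride transport triggered in chloride-free buffer with 10 μM forskolin, 100 μM IBMX, 300 nM Compound III; fluorescence read 15 min, expressed as % of triple-corrector/potentiator combination control.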

[1] = Table 10, read-out: Ent. B EC50

Sequence of CFTR (P13569 with tags, fused parts or gaps DEL508-508): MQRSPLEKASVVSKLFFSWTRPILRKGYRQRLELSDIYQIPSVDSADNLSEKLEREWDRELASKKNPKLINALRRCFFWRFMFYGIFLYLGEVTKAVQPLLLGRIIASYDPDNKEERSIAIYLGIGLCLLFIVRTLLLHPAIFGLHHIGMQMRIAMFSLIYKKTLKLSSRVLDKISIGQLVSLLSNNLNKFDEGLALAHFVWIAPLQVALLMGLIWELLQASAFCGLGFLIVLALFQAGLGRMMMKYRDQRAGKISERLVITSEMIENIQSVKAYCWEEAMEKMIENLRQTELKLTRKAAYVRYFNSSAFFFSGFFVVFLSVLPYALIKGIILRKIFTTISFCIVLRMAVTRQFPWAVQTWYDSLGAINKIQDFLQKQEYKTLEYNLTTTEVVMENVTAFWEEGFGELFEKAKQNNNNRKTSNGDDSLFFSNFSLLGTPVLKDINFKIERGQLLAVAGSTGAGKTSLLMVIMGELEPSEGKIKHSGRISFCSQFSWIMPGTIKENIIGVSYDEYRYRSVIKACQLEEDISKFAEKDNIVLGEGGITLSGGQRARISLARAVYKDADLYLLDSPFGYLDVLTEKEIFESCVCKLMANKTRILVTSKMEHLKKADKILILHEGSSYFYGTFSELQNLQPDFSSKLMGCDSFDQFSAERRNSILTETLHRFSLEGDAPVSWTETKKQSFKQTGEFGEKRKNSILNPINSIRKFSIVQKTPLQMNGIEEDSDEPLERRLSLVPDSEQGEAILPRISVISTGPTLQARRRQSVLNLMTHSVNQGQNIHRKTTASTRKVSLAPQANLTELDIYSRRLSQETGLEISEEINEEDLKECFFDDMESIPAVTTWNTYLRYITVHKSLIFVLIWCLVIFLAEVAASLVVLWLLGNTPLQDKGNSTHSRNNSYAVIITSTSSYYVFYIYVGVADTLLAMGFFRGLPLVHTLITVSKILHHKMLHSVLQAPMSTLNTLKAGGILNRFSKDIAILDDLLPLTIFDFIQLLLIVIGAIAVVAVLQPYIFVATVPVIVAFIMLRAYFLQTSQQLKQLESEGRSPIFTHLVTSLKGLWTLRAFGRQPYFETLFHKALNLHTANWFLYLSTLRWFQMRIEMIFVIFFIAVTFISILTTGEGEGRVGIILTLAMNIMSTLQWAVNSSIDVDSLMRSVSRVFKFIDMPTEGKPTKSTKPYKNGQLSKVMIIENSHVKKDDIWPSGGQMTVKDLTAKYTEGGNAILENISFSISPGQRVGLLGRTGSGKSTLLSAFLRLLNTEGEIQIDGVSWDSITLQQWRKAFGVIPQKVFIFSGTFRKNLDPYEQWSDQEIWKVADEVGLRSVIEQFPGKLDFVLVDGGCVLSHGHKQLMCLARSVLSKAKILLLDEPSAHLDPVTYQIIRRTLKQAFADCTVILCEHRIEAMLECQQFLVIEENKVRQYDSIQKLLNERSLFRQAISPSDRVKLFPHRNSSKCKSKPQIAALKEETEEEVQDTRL

Row | Structure (SMILES) | Ent. B Max Activity (%) (Table 10) | EC50 [1] | Ent. B Max Activity (%) (Table 9) | EC50 (Table 9, read-out: Ent. B EC50) | also measured
1 | CCC(=O)N1C[C@H]2C[C@@H](C1)[C@H]2N1C(=O)c2cccc(c2)S(=O)(=O)Nc2nc(cc(-c3c(C)cccc3C)n2)OC[C@H]1CC(C)(C)C [Compound 231] | ++ (++ is 30-60%) | – | – | – | EC50 (read-out: Ent. B EC50, Table 10): < 1000 nM
2 | Cc1cccc(C)c1-c1cc2nc(n1)NS(=O)(=O)c1cccc(c1)C(=O)N(C1CC3(CC(C(N)=O)C3)C1)[C@H](CC(C)(C)C)CO2 (stereo partly shown) [Compound 232] | +++ (+++ is >60%) | < 1000 nM | – | – | –
3 | Cc1cccc(C)c1-c1cc2nc(n1)NS(=O)(=O)c1cccc(c1)C(=O)N(C1CC3(CCN3C(=O)CO)C1)[C@H](CC(C)(C)C)CO2 (stereo partly drawn) [Compound 146, (11R)-6-(2,6-Dimethylphenyl)-11-(2,2-dimethylpropyl)-12-[1-(2-hydroxyacetyl)-1-azaspiro[3.3]heptan-6-yl]-2,2-dioxo-9-oxa-2λ^6-thia-3,5,12,19-tetrazatricyclo[12.3.1.14,8]nonadeca-1(18),4(19),5,7,14,16-hexaen-13-one] | +++ (+++ is >60%) | < 1000 nM | – | – | –
4 | Cc1cccc(C)c1-c1cc2nc(n1)NS(=O)(=O)c1cccc(c1)C(=O)N(C1CC(CO)(CO)C1)[C@H](CC(C)(C)C)CO2 [Compound 158, (11R)-12-[3,3-Bis(hydroxymethyl)cyclobutyl]-6-(2,6-dimethylphenyl)-11-(2,2-dimethylpropyl)-9-oxa-2λ^6-thia-3,5,12,19-tetraazatricyclo[12.3.1.14,8]nonadeca-1(17),4(19),5,7,14(18),15-hexaene-2,2,13-trione] | +++ (+++ is >60%) | 1000 to 3000 nM | – | – | –
5 | Cc1cccc(C)c1-c1cc2nc(n1)NS(=O)(=O)c1cccc(c1)C(=O)N([C@H]1C[C@@H](OC(C)C)C1)[C@H](CC1(C(F)(F)F)CC1)CO2 (single isomer, unassigned) [Compound 131] | – | – | +++ (+++ is >60%) | < 1000 nM | –
6 | CO[C@H]1C[C@@H](N2C(=O)c3cccc(c3)S(=O)(=O)Nc3nc(cc(-c4c(C)cccc4C)n3)OC[C@H]2CC(C)(C)C)C1 (single isomer, unassigned) [Compound 151] | – | – | – | – | Ent. B Max Activity (%): +++ (+++ is >60%); EC50 (read-out: Ent. B EC50): < 1000 nM
7 | [H][C@]1(N2C(=O)c3cccc(c3)S(=O)(=O)Nc3nc(cc(-c4c(C)cccc4C)n3)OC[C@H]2CC(C)C)C[C@@]2(C[C@H](C(C)(C)O)C2)C1 (stereo in doubt) [Compound 413] | +++ (+++ is >60%) | < 1000 nM | – | – | –
8 | Cc1cccc(C)c1-c1cc2nc(n1)NS(=O)(=O)c1cccc(c1)C(=O)N([C@H]1C[C@@H](C(C)(C)O)C1)[C@H](CC(C)(C)C)CO2 (single isomer, unassigned) [Compound 141] | +++ (+++ is >60%) | < 1000 nM | – | – | –
9 | COCCN1CCC2(CC1)CC(N1C(=O)c3cccc(c3)S(=O)(=O)Nc3nc(cc(-c4c(C)cccc4C)n3)OC[C@H]1CC(C)(C)C(F)(F)F)C2 [Compound 190, (11R)-6-(2,6-dimethylphenyl)-12-[7-(2-methoxyethyl)-7-azaspiro[3.5]nonan-2-yl]-11-(3,3,3-trifluoro-2,2-dimethylpropyl)-9-oxa-2λ^6-thia-3,5,12,19-tetraazatricyclo[12.3.1.14,8]nonadeca-1(17),4(19),5,7,14(18),15-hexaene-2,2,13-trione] | – | – | +++ (+++ is >60%) | < 1000 nM | –
10 | Cc1cccc(C)c1-c1cc2nc(n1)NS(=O)(=O)c1cccc(c1)C(=O)N(C1CC(NC(=O)OC(C)C)C1)[C@H](CC(C)(C)C)CO2 (stereo in doubt) [Compound 450] | – | – | +++ (+++ is >60%) | < 1000 nM | –
11 | CCN(C(=O)OC)C1CC(N2C(=O)c3cccc(c3)S(=O)(=O)Nc3nc(cc(-c4c(C)cccc4C)n3)OC[C@H]2CC(C)(C)C)C1 (single isomer, unassigned) [Compound 237] | ++ (++ is 30-60%) | < 1000 nM | – | – | –
12 | Cc1cccc(C)c1-c1cc2nc(n1)NS(=O)(=O)c1cccc(n1)C(=O)N(C1CC3(CC(C(=O)N(C)C)C3)C1)[C@H](CC(C)(C)C)CO2 (stereo partly shown) [Compound 414] | +++ (+++ is >60%) | < 1000 nM | – | – | –
13 | CO[C@@H](C)C(=O)N1CCC2(CC1)CC(N1C(=O)c3cccc(c3)S(=O)(=O)Nc3nc(cc(-c4c(C)cccc4C)n3)OC[C@H]1CC(C)C)C2 [Compound 454] | – | – | +++ (+++ is >60%) | < 1000 nM | –
14 | COC(=O)NC1CC2(C1)CC(N1C(=O)c3cccc(c3)S(=O)(=O)Nc3nc(cc(-c4c(C)cccc4C)n3)OC[C@H]1CC(C)(C)C)C2 (single isomer, unassigned) [Compound 91] | – | – | +++ (+++ is >60%) | < 1000 nM | –
15 | COC(=O)N[C@H]1CC2(C1)C[C@H](N1C(=O)c3cccc(c3)S(=O)(=O)Nc3nc(cc(-c4c(C)cccc4C)n3)OC[C@H]1CC1(C(F)(F)F)CC1)C2 (stereo partly shown) [Compound 274] | – | – | +++ (+++ is >60%) | < 1000 nM | –
16 | Cc1cccc(C)c1-c1cc2nc(n1)NS(=O)(=O)c1cccc(c1)C(=O)N([C@H]1C[C@H](N)C1)[C@H](CC1(C(F)(F)F)CC1)CO2 (single isomer, unassigned) [Compound 57] | – | – | +++ (+++ is >60%) | < 1000 nM | –

Row | Structure (SMILES) | Ent. B Max Activity (%) (Table 10) | EC50 [1] | Ent. B Max Activity (%) (Table 9) | EC50 (Table 9, read-out: Ent. B EC50) | also measured
17 | Cc1cccc(C)c1-c1cc2nc(n1)NS(=O)(=O)c1cccc(c1)C(=O)N(C1CC3(COC(=O)N3C)C1)[C@H](CC(C)(C)C)CO2 (single isomer, unassigned) [Compound 174] | ++ (++ is 30-60%) | < 1000 nM | – | – | –
18 | [H][C@]1(N2C(=O)c3cccc(c3)S(=O)(=O)Nc3nc(cc(-c4c(C)cccc4C)n3)OC[C@H]2CC(C)C)C[C@@]2(C[C@H](N(C)CCOC)C2)C1 (stereo partly shown) [Compound 286] | – | – | +++ (+++ is >60%) | < 1000 nM | –
19 | Cc1cccc(C)c1-c1cc2nc(n1)NS(=O)(=O)c1cccc(c1)C(=O)N([C@H]1CCN(C)C1)[C@H](CC(C)C)CO2 (stereo in doubt) [Compound 295] | – | – | – | – | Ent. B Max Activity (%): +++ (+++ is >60%); EC50 (read-out: Ent. B EC50): < 1000 nM
20 | Cc1cccc(C)c1-c1cc2nc(n1)NS(=O)(=O)c1cccc(c1)C(=O)N(C1CC(NC(=O)OC(C)C)C1)[C@H](CC1(C(F)(F)F)CC1)CO2 (single isomer, unassigned) [Compound 59] | – | – | +++ (+++ is >60%) | < 1000 nM | –
21 | COCCN1CC2(CC(N3C(=O)c4cccc(c4)S(=O)(=O)Nc4nc(cc(-c5c(C)cccc5C)n4)OC[C@H]3CC(C)C)C2)C1 [Compound 104, (11R)-6-(2,6-Dimethylphenyl)-11-isobutyl-12-[2-(2-methoxyethyl)-2-azaspiro[3.3]heptan-6-yl]-2,2-dioxo-9-oxa-2λ^6-thia-3,5,12,19-tetrazatricyclo[12.3.1.14,8]nonadeca-1(18),4(19),5,7,14,16-hexaen-13-one] | – | – | +++ (+++ is >60%) | – | –
22 | Cc1cccc(C)c1-c1cc2nc(n1)NS(=O)(=O)c1cccc(c1)C(=O)N(C1CC3(CC(O)C3)C1)[C@H](CC(C)(C)C)CO2 (single isomer, unassigned) [Compound 121] | +++ (+++ is >60%) | < 1000 nM | – | – | –
23 | Cc1cccc(C)c1-c1cc2nc(n1)NS(=O)(=O)c1cccc(c1)C(=O)N([C@H]1C[C@]3(C[C@H](N(C)C(=O)OC(C)C)C3)C1)[C@H](CC1(C(F)(F)F)CC1)CO2 (stereo partly shown) [Compound 271] | – | – | +++ (+++ is >60%) | < 1000 nM | –
24 | COC(=O)NC1(C)CC(N2C(=O)c3cccc(c3)S(=O)(=O)Nc3nc(cc(-c4c(C)cccc4C)n3)OC[C@H]2CC(C)(C)C)C1 (single isomer, unassigned) [Compound 171] | +++ (+++ is >60%) | < 1000 nM | – | – | –
25 | COC(=O)N(C)C1CC2(C1)CC(N1C(=O)c3cccc(c3)S(=O)(=O)Nc3nc(cc(-c4c(C)cccc4C)n3)OC[C@H]1CC(C)(C)C)C2 (stereo partly drawn) [Compound 94, Methyl ((2R,4r,6R)-6-((R)-1^6-(2,6-dimethylphenyl)-7-neopentyl-3,3-dioxido-5-oxo-9-oxa-3-thia-2,6-diaza-1(2,4)-pyrimidina-4(1,3)-benzenacyclononaphane-6-yl)spiro[3.3]heptan-2-yl)(methyl)carbamate] | ++ (++ is 30-60%) | < 1000 nM | – | – | –
26 | COC(=O)N[C@H]1CC2(C1)C[C@H](N1C(=O)c3cccc(c3)S(=O)(=O)Nc3nc(cc(-c4c(C)cccc4C)n3)OC[C@H]1CC(C)C)C2 (stereo partly shown) [Compound 305] | – | – | – | – | Ent. B Max Activity (%): +++ (+++ is >60%); EC50 (read-out: Ent. B EC50): < 1000 nM
27 | COCC(C)N1CCC2(CC1)CC(N1C(=O)c3cccc(c3)S(=O)(=O)Nc3nc(cc(-c4c(C)cccc4C)n3)OC[C@H]1CC(C)C)C2 (stereo partly shown) [Compound 257] | – | – | +++ (+++ is >60%) | < 1000 nM | –
28 | COCCN1CCC2(CC1)CC(N1C(=O)c3cccc(c3)S(=O)(=O)Nc3nc(cc(-c4c(C)cccc4C)n3)OC[C@H]1CC(C)(C)C)C2 [Compound 138, (11R)-6-(2,6-Dimethylphenyl)-11-(2,2-dimethylpropyl)-12-[7-(2-methoxyethyl)-7-azaspiro[3.5]nonan-2-yl]-2,2-dioxo-9-oxa-2λ^6-thia-3,5,12,19-tetrazatricyclo[12.3.1.14,8]nonadeca-1(18),4(19),5,7,14,16-hexaen-13-one] | – | – | – | – | Ent. B Max Activity (%): +++ (+++ is >60%); EC50 (read-out: Ent. B EC50): < 1000 nM
29 | Cc1cccc(C)c1-c1cc2nc(n1)NS(=O)(=O)c1cccc(c1)C(=O)N(C1CC3(CCN(C(=O)OC(C)(C)C)CC3)C1)[C@H](CC(C)(C)C)CO2 [Compound 437] | – | – | – | – | Ent. B Max Activity (%): ++ (++ is 30-60%); EC50 (read-out: Ent. B EC50): < 1000 nM
30 | COC(=O)N[C@H]1C[C@@]2(C1)C[C@H](N1C(=O)c3cccc(c3)S(=O)(=O)Nc3nc(cc(-c4c(C)cccc4C)n3)OC[C@H]1CC1(C(F)(F)F)CC1)C2 (stereo partly shown) [Compound 273] | – | – | +++ (+++ is >60%) | < 1000 nM | –
31 | COC(=O)NCC1CC(N2C(=O)c3cccc(c3)S(=O)(=O)Nc3nc(cc(-c4c(C)cccc4C)n3)OC[C@H]2CC(C)C)C1 (stereo partly shown) [Compound 263] | – | – | +++ (+++ is >60%) | < 1000 nM | –
